Laboratory results: paper PMC8651387, “Synthesis and Evaluation of the Acetylcholinesterase Inhibitory Activities of Some Flavonoids Derived from Naringenin” (The Scientific World Journal, 2021)
Several values for one entry are separate records, joined by “and”; a condition that tells them apart may be missing. Equal values may be shown once. Read-outs that look alike come from different tables or passages of the source.

Legend:
AChE = AChE (Homo sapiens, UniProt P22303); test: biochemical; settings: for IC50: pH 8, 25°C, triplicate
Chain of AChE (P22303 32-614): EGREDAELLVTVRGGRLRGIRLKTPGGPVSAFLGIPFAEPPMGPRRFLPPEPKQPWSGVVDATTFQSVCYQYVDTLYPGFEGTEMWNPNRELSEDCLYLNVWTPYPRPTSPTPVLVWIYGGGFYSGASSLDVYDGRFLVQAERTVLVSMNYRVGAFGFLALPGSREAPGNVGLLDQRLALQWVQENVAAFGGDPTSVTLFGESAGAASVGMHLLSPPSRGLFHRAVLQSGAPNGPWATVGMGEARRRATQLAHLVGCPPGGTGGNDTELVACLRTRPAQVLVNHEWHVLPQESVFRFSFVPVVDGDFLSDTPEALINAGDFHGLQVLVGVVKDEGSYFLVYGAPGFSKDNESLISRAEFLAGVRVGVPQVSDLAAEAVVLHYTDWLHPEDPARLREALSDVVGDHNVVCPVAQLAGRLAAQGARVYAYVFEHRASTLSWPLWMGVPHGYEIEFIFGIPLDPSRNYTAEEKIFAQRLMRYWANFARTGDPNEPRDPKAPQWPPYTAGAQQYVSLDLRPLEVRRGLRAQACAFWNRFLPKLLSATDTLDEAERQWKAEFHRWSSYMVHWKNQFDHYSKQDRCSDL

[1] = Solubility in water and solvents (compound description)
[2] = AChE 0.25 UI/mL, read-out: IC50

COc1cc(O)c2c(c1)OC(c1ccc(O)cc1)CC2=O (stereo not drawn) [Compound 1, 4′,5-Dihydroxy-7-methoxyflavanone]
IC50 (AChE; IC50, AChE 0.25 UI/mL): > 100 µM

COc1ccc(C2CC(=O)c3c(O)cc(OC)cc3O2)cc1 (stereo not drawn) [Compound 2, 5-Hydroxy-4′,7-dimethoxyflavanone]
AChE inhibitory activity (in words) (AChE): improved activities over naringenin
IC50 (AChE; [2]): < 100 µM and 75 µM
Solubility in acetone [1]: soluble
Solubility in dichloromethane [1]: highly soluble
Solubility in methanol [1]: sparingly soluble
Solubility in water [1]: insoluble

COc1ccc(/C=C/C(=O)c2c(OC)cc(OC)cc2OC)cc1 [Compound 3, (E)-2′,4,4′,6′-Tetramethoxychalcone]
IC50 (AChE; IC50, AChE 0.25 UI/mL): > 100 µM
Solubility in acetone [1]: soluble
Solubility in dichloromethane [1]: highly soluble
Solubility in methanol [1]: sparingly soluble
Solubility in water [1]: insoluble

CCOc1ccc(/C=C/C(=O)c2c(O)cc(OCC)cc2OCC)cc1 [Compound 4, (E)-2′,4,4′-Triethoxy-6′-hydroxychalcone]
AChE inhibitory activity (in words) (AChE): improved activities over naringenin
IC50 (AChE; [2]): < 100 µM and 39.8 µM
Solubility in acetone [1]: soluble
Solubility in dichloromethane [1]: highly soluble
Solubility in methanol [1]: slightly soluble
Solubility in water [1]: insoluble

C=CCOc1cc(O)c2c(c1)OC(c1ccc(O)cc1)CC2=O (stereo not drawn) [Compound 5, 7-Allyloxy-4′,5-dihydroxyflavanone]
AChE inhibitory activity (in words) (AChE): improved activities over naringenin
IC50 (AChE; [2]): < 100 µM and 48.4 µM
Solubility in acetone [1]: highly soluble
Solubility in dichloromethane [1]: sparingly soluble
Solubility in methanol [1]: sparingly soluble
Solubility in water [1]: insoluble

C=CCOc1ccc(C2CC(=O)c3c(O)cc(OCC=C)cc3O2)cc1 (stereo not drawn) [Compound 6, 4′,7-Diallyloxy-5-hydroxyflavanone]
AChE inhibitory activity (in words) (AChE): negligible biological effects
IC50 (AChE; [2]): > 100 µM
Solubility in acetone [1]: soluble
Solubility in dichloromethane [1]: highly soluble
Solubility in methanol [1]: sparingly soluble
Solubility in water [1]: insoluble

C=CCOc1ccc(/C=C/C(=O)c2c(O)cc(OCC=C)cc2OCC=C)cc1 [Compound 7, (E)-2′,4,4′-Triallyloxy-6′-hydroxychalcone]
AChE inhibitory activity (in words) (AChE): improved activities over naringenin
IC50 (AChE; [2]): < 100 µM and 13 µM
Solubility in acetone [1]: soluble
Solubility in dichloromethane [1]: highly soluble
Solubility in methanol [1]: sparingly soluble
Solubility in water [1]: insoluble

O=C(/C=C/c1ccc(OCc2ccccc2)cc1)c1c(O)cc(OCc2ccccc2)cc1OCc1ccccc1 [Compound 8, (E)-2′,4,4′-Tribenzyloxy-6′-hydroxychalcone]
IC50 (AChE; [2]): > 100 µM
Solubility in acetone [1]: soluble
Solubility in dichloromethane [1]: soluble
Solubility in methanol [1]: insoluble
Solubility in water [1]: insoluble

O=C(/C=C/c1ccc(OCc2ccccc2)cc1)c1c(OCc2ccccc2)cc(OCc2ccccc2)cc1OCc1ccccc1 [Compound 9, (E)-2′,4,4′,6′-Tetrabenzyloxychalcone]
AChE inhibitory activity (in words) (AChE): negligible biological effects
IC50 (AChE; [2]): > 100 µM
Solubility in acetone [1]: soluble
Solubility in dichloromethane [1]: highly soluble
Solubility in methanol [1]: slightly soluble
Solubility in water [1]: insoluble

O=C1C[C@@H](c2ccc(O)cc2)Oc2cc(O)cc(O)c21 [Naringenin]
IC50 (AChE; IC50, AChE 0.25 UI/mL): 150 ± 4.6 µM
